Test: Viscosity, Brookfield RVT Viscometer, Spindle F (Example 6)
Assay type: physicochemical
Conditions: compared with SCI
Method: Compositions of the inventive shampoos can have a viscosity ranging from 120,000 cps to 3,000,000 cps. Viscosity can be measured using suitable viscometer known to those of skill in the art. The preferred viscosity range is 1,000,000 cps-2,000,000 cps using a Brookfield RVT Viscometer, Spindle F at 0.5 rpm for 90 sec, with around 1,500,000 cps being the most preferred.
The viscosity of various combinations of propanediol, SCI and SLMI was measured using a Brookfield RVT Viscometer, Spindle F.

SMILES: CCCCCCCCCCCC(=O)OC(C)CS(=O)(=O)[O-].[Na+] (stereo not shown) [SLMI, sodium lauroyl methyl isethionate]
- Effect of an increase in the percentage of SLMI on viscosity of the shampoo compositions: significantly increases the viscosity
